Data as given in patent US10875845B2, “Compounds and methods for the treatment of ocular disorders” (Azura Ophthalmics Ltd., priority 2019, dated 2020).

Tests used:
Rabbit Cornea Homogenate = Rabbit Cornea Homogenate Stability Assay (rabbit cornea esterase assay); type: in vitro ADME; details: 37° C.
Procedure: Determining Rabbit Cornea Homogenate stability of the test compounds was performed using HPLC-MS. The assay was performed at two concentrations of Rabbit Cornea Homogenate (0.15 mg/ml and 0.45 mg/ml total protein) so that any hydrolysis observed could be assigned as esterase dependent or not.
Five rabbit corneas (e.g. New Zealand Whites) of approx. 50 mg each were sliced and scraped with a scalpel and tweezers until reduced to small (1-3 mm), thin pieces. These were transferred into a tared vial and accurately weighed, then diluted with 10 volumes aqueous PBS pH7.4
Sample was cooled intermittently on ice and shear homogenized for 3 minutes, then centrifuged for 3 min at 3000 rpm. The supernatant was pipetted off into a vial, and total protein concentration determined at 280 nm. Sample was stored at −78° C.
10 mM Compound stocks were diluted to 100 μM in a 96 deep-well plate: 10 μl of 10 mM Compound stock was added to 990 μl 50 mM HEPES, pH7.5 buffer.
Compounds were further diluted to 10 μM: 100 μl of 100 μM compound was added to 900 μl 50 mM HEPES, pH7.5 buffer.
Esterase homogenate was diluted to 300 ng/μl and 900 ng/μl
A heater shaker was set to 37° C. Into a suitable 96 well plate (Run Plate), 75 μl of 300 or 900 ng/μl esterase homogenate was pipetted into each of the required wells (2 min, 5 min, 10 min, 20 min and 45 min). The plate was sealed and then warmed at 37° C. for 5 min. Another 96 well PCR plate is put on ice (Kill Plate). To this was added 100 μl of MeCN to each well, labelled 0 min, 2 min, 5 min, 10 min, 20 min and 45 min. The plate was covered to minimise evaporation. For the T=0 sample only, to the 100 μl cold MeCN stop solution was added 50 μl of 300 or 900 ng/μl esterase homogenate followed by 50 μl of 10 μM compound solution For the remaining time points, 75 μl of 10 μM compound solution was added to the Run Plate starting from T=45 min row and ending with T=2 min row. At the appropriate time point, 100 μl of the assay mixture was added to the matching kill plate well containing 100 μl of cold MeCN. Samples were analysed as soon as practicable by LCMS (Waters Xevo TQ-S or Micromass Ultima).
Parent conjugate and parent concentrations were determined against appropriate standard response curves and the half-life (T1/2) of the parent conjugate was calculated using the peak area of the parent conjugate at each time point in the linear region of the log—linear plot.

[1] = Aqueous Hydrolysis Stability Assay; type: physicochemical; details: 100 μM in 50 mM HEPES pH 7.5 buffer or 1:1 Acetonitrile:Water, room temperature
Procedure: Determination of aqueous stability of the test compounds was performed using HPLC-MS. A test compound 10 mM stock solution was prepared in DMSO. 10 μl of the DMSO stock solution was dissolved in 990 μl of 50 mM HEPES pH 7.5 buffer or 1:1 (v/v) of Acetonitrile:Water to make a 100 μM solution. Final DMSO concentration was 1%. The solution was kept at room temperature and injected without delay into the LCMS (Waters Xevo TQ-S or Micromass Ultima). Additional injections were performed at appropriate time points.
Half-life (T1/2) of the parent conjugate was calculated using the peak area of the parent conjugate at each time point in the linear region of the log—linear plot.

[2] = Cornea Homogenate Conc 0.15 mg/mL
[3] = Cornea Homogenate Conc 0.45 mg/mL

SMILES	API Formation rate (Rabbit Cornea Homogenate; [2])	Esterase % Lifitegrast formation at 45 min (Rabbit Cornea Homogenate; [2])	API Formation rate (Rabbit Cornea Homogenate; [3])	Esterase % Lifitegrast formation at 45 min (Rabbit Cornea Homogenate; [3])	Hydrolytic % Lifitegrast formation at [time] ([1]; at 142 min)	Hydrolytic % Lifitegrast formation at [time] ([1]; at 192 min)	Hydrolytic % Lifitegrast formation at [time] ([1]; at 45 min)
CC(OC(=O)OCC(COC(=O)[C@@H](C)O)COC(=O)[C@@H](C)O)OC(=O)[C@H](Cc1cccc(S(C)(=O)=O)c1)NC(=O)c1c(Cl)cc2c(c1Cl)CCN(C(=O)c1ccc3ccoc3c1)C2 (stereo partly drawn) [Comp 13, 2-((8S)-10-(2-(benzofuran-6-carbonyl)-5,7-dichloro-1,2,3,4-tetrahydroisoquinolin-6-yl)-5-methyl-8-(3-(methylsulfonyl)benzyl)-3,7,10-trioxo-2,4,6-trioxa-9-azadecyl)propane-1,3-diyl (2R,2'R)-bis(2-hydroxypropanoate)]	a (API formation rate<0.5%/min)	A (percent active pharmaceutical ingredient (API) formation<25%)	a (API formation rate<0.5%/min)	A (percent active pharmaceutical ingredient (API) formation<25%)			
CC(=O)OC(C)OC(=O)[C@H](Cc1cccc(S(C)(=O)=O)c1)NC(=O)c1c(Cl)cc2c(c1Cl)CCN(C(=O)c1ccc3ccoc3c1)C2 (stereo partly drawn) [Comp 14, 1-acetoxyethyl (2S)-2-(2-(benzofuran-6-carbonyl)-5,7-dichloro-1,2,3,4-tetrahydroisoquinoline-6-carboxamido)-3-(3-(methylsulfonyl)phenyl) propanoate]	c (API formation rate 1.0-1.5%/min)	C (percent API formation 51% to 75%)	d (API formation rate>1.5%/min)	D (percent API formation>75%)	B [142 min] (percent API formation 1.5-4%)		
CC(OC(=O)OCC(COC(=O)C(C)(C)C)COC(=O)C(C)(C)C)OC(=O)[C@H](Cc1cccc(S(C)(=O)=O)c1)NC(=O)c1c(Cl)cc2c(c1Cl)CCN(C(=O)c1ccc3ccoc3c1)C2 (stereo partly drawn) [Comp 12, 2-((8S)-10-(2-(benzofuran-6-carbonyl)-5,7-dichloro-1,2,3,4-tetrahydroisoquinolin-6-yl)-5-methyl-8-(3-(methylsulfonyl)benzyl)-3,7,10-trioxo-2,4,6-trioxa-9-azadecyl)propane-1,3-diyl bis(2,2-dimethylpropanoate)]	a (API formation rate<0.5%/min)	A (percent active pharmaceutical ingredient (API) formation<25%)	a (API formation rate<0.5%/min)	A (percent active pharmaceutical ingredient (API) formation<25%)	B [142 min] (percent API formation 1.5-4%)		
Cc1ccccc1OCC(=O)N[C@@H](CC(C)C)C(=O)N[C@@H](Cc1ccc(OC(=O)N2CCC(C(N)=O)CC2)cc1)C(=O)OC(C)OC(=O)OC(C)C (stereo partly drawn) [Comp 2, 4-((2S)-3-(1-((isopropoxycarbonyl)oxy)ethoxy)-2-((S)-4-methyl-2-(2-(o-tolyloxy)acetamido)pentan-amido)-3-oxopropyl)phenyl 4-carbamoylpiperidine-1-carboxylate]	b (API formation rate 0.5-1.0%/min)	B (percent API formation 25% to 50%)	c (API formation rate 1.0-1.5%/min)	C (percent API formation 51% to 75%)		A [192 min] (percent active pharmaceutical ingredient (API) formation<1.5%)	
CC(OC(=O)[C@H](Cc1cccc(S(C)(=O)=O)c1)NC(=O)c1c(Cl)cc2c(c1Cl)CCN(C(=O)c1ccc3ccoc3c1)C2)OC(=O)C(C)(C)C (stereo partly drawn) [Comp 17, 1-(((S)-2-(2-(benzofuran-6-carbonyl)-5,7-dichloro-1,2,3,4-tetrahydroisoquinoline-6-carboxamido)-3-(3-(methylsulfonyl)phenyl)propanoyl)oxy)ethyl pivalate]	b (API formation rate 0.5-1.0%/min)	B (percent API formation 25% to 50%)	c (API formation rate 1.0-1.5%/min)	C (percent API formation 51% to 75%)			A [45 min] (percent active pharmaceutical ingredient (API) formation<1.5%)
CC(OC(=O)OCC1COC(C)(C)OC1)OC(=O)[C@H](Cc1cccc(S(C)(=O)=O)c1)NC(=O)c1c(Cl)cc2c(c1Cl)CCN(C(=O)c1ccc3ccoc3c1)C2 (stereo partly drawn) [Comp 9, 1-((((2,2-dimethyl-1,3-dioxan-5-yl)methoxy)carbonyl)oxy) ethyl (2S)-2-(2-(benzofuran-6-carbonyl)-5,7-dichloro-1,2,3,4-tetrahydroisoquinoline-6-carboxamido)-3-(3-(methylsulfonyl)phenyl) propanoate]	b (API formation rate 0.5-1.0%/min)	B (percent API formation 25% to 50%)	d (API formation rate>1.5%/min)	C (percent API formation 51% to 75%)	B [142 min] (percent API formation 1.5-4%)		

The next lines start with results.

API Formation rate (Rabbit Cornea Homogenate; [2])	Esterase % Lifitegrast formation at 45 min (Rabbit Cornea Homogenate; [2])	API Formation rate (Rabbit Cornea Homogenate; [3])	Esterase % Lifitegrast formation at 45 min (Rabbit Cornea Homogenate; [3])	SMILES	Hydrolytic % Lifitegrast formation at [time] ([1]; at 142 min)	Hydrolytic % Lifitegrast formation at [time] ([1]; at 192 min)	Hydrolytic % Lifitegrast formation at [time] ([1]; at 45 min)
b (API formation rate 0.5-1.0%/min)	B (percent API formation 25% to 50%)	c (API formation rate 1.0-1.5%/min)	B (percent API formation 25% to 50%)	CC(=O)OCC(COC(C)=O)COC(=O)OC(C)OC(=O)[C@H](Cc1cccc(S(C)(=O)=O)c1)NC(=O)c1c(Cl)cc2c(c1Cl)CCN(C(=O)c1ccc3ccoc3c1)C2 (stereo partly drawn) [Comp 11, 2-((8S)-10-(2-(benzofuran-6-carbonyl)-5,7-dichloro-1,2,3,4-tetrahydroisoquinolin-6-yl)-5-methyl-8-(3-(methylsulfonyl)benzyl)-3,7,10-trioxo-2,4,6-trioxa-9-azadecyl)propane-1,3-diyl diacetate]	C [142 min] (percent API formation>4%)		
b (API formation rate 0.5-1.0%/min)	B (percent API formation 25% to 50%)	d (API formation rate>1.5%/min)	D (percent API formation>75%)	CC(C)OC(=O)OC(C)OC(=O)[C@H](Cc1cccc(S(C)(=O)=O)c1)NC(=O)c1c(Cl)cc2c(c1Cl)CCN(C(=O)c1ccc3ccoc3c1)C2 (stereo partly drawn) [Comp 5, 1-((isopropoxycarbonyl)oxy)ethyl (2S)-2-(2-(benzofuran-6-carbonyl)-5,7-dichloro-1,2,3,4-tetrahydroisoquinoline-6-carboxamido)-3-(3-(methylsulfonyl)phenyl) propanoate]		A [192 min] (percent active pharmaceutical ingredient (API) formation<1.5%)	
b (API formation rate 0.5-1.0%/min)	B (percent API formation 25% to 50%)	c (API formation rate 1.0-1.5%/min)	C (percent API formation 51% to 75%)	COC(=O)[C@@H](C)OC(=O)OC(C)OC(=O)[C@H](Cc1cccc(S(C)(=O)=O)c1)NC(=O)c1c(Cl)cc2c(c1Cl)CCN(C(=O)c1ccc3ccoc3c1)C2 (stereo partly drawn) [Comp 7, 1-(((((R)-1-methoxy-1-oxopropan-2-yl)oxy)carbonyl)oxy)ethyl (2S)-2-(2-(benzofuran-6-carbonyl)-5,7-dichloro-1,2,3,4-tetrahydroisoquinoline-6-carboxamido)-3-(3-(methylsulfonyl)phenyl) propanoate]	B [142 min] (percent API formation 1.5-4%)		
